From US20130123255A1, “COMBINATION OF A PI3K INHIBITOR AND A MEK INHIBITOR” (CHUGAI SEIYAKU KABUSHIKI KAISHA, priority 2011, published 2013)

Experiments:
[1] = system: Akt phosphorylation in HCT116 cells; experiment: Western blot of PI3K pathway, Akt phosphorylation; format: cell-based; conditions: 1 μM, 24 hours, FIG. 3
Method: (§1) To investigate the combination effect on PI3K and MAPK pathway, compound of formula (I) and compound of formula (II) were tested on HCT116 cells.
(§2) 5×10^5 of cells were treated with compound of formula (I) alone, compound of formula (II) alone or the combination thereof at 1 μM for 24 hours in 6-well plate. After that, HCT116 cells were lysed with Cell Lysis Buffer (Cell Signaling Technology) containing protease and phosphatase inhibitors. The lysates were denatured and then subjected to SDS-PAGE. After electroblotting, the polyvinylidene fluoride membranes were blocked with Blocking One (Nacalai Tesque) for 1 h. Membranes were then incubated with primary antibodies purchased from Cell Signaling Technology Inc., and anti-actin antibody purchased from Santa Cruz Biotechnology over night at 4° C., followed by washing three times with 0.1% Tween 20 (Nacalai Tesque) in TBS buffer (TBS-T buffer; TaKaRa Bio). This was followed by 0.5 to 1 h incubation at room temperature with secondary antibodies (Cell Signaling Technology). Then, membranes were washed four times with TBS-T buffer, followed by incubation with ECL or ECL-plus solutions (GE Healthcare). Signals were detected using LAS-4000 (Fujifilm) according to the manufacturer's instructions.

[2] = system: ERK phosphorylation in HCT116 cells; experiment: Western blot of MAPK pathway, ERK phosphorylation; format: cell-based
Method: as §1, §2

## CS(=O)(=O)N1CCc2c(-c3cnc(N)nc3)nc(N3CCOCC3)nc21 [compound of formula (II), 5-(7-methanesulfonyl-2-morpholin-4-yl-6,7-dihydro-5H-pyrrolo[2,3-d]pyrimidin-4-yl)-pyrimidin-2-ylamine]
[1]
  phosphorylation of Akt: suppressed

## O=C(NOCCO)c1cc(CN2OCCCC2=O)c(F)c(F)c1Nc1ccc(I)cc1F [compound of formula (I), 3,4-difluoro-2-(2-fluoro-4-iodo-phenylamino)-N-(2-hydroxy-ethoxy)-5-(3-oxo-[1,2]oxazinan-2-ylmethyl)-benzamide]
[2]
  phosphorylation of ERK: suppressed
